The first assay deals with red blood cells (5% RBC suspension). In words: Test Example 2-1: in vitro hemolytic activity test (upper limit 50, 80, 100 or 200 μmol/L). The format is cell-based. Conditions: Erythrocyte, 1 h; hemolysis method 50 (upper concentration 50 μmol/L); 5% RBC suspension, 37° C., one hour; read-out: hemolysis IC50. As to the method: Nephrotoxic potentials of the compounds of the present invention except the compounds whose X is —N(R^F)—CO—X^1 and X^1 is the group represented by formula (III) and T is —N(R^a5)— were investigated by in vitro hemolytic activity test under the condition, in that, the upper limit was 50 μmol/L, 80 μmol/L, 100 μmol/L, or 200 μmol/L as the required concentration to 50% of hemolysis (IC50).
Defibrinated sterile blood was centrifuged at 700×g for 3 minutes and, and the supernatant was removed for 100% of red blood cells. After the cleaning with physiological saline, the washed blood cells was suspended in the medium (Earle's balanced salt sodium, bicarbonate, 0.1 g/L L-glutamine without phenol red), and was diluted by 5% (5% RBC suspension).
The washed blood was diluted by 5% in water for injection (solution of complete hemolysis), and was used as the indication of optical density for complete hemolysis.
The compounds of the present invention solution in DMSO (several and doubling dilutions starting from 2.5 mmol/L, 4 mmol/L, 5 mmol/L, or 10 mmol/L), DMSO as the negative control, and Amphotericin B as the positive control were used, and each 5 μL of these was added in to a well of V-form 96 well type microplate.
Finally, the maximum concentration of the compounds of the present invention solution in DMSO was 50 μmol/L, 80 μmol/L, 100 μmol/L, or 200 μmol/L by adding 245 μL of the medium or 5% RBC suspension into the well.
Two hundred fifty μL of the solution of complete hemolysis was added into another well and the microplate was incubated at 37° C. in 5% of CO2 concentration for an hour.
After the incubation, each 100 μL of supernatants in wells was collected by centrifugation of the microplate at 300×g for 5 minutes and was located on a well of flat-form 96 well type microplate. An absorbance of each supernatant was measured at wavelength of 540 nm.
Percent hemolysis was calculated by using the followed equation. The required concentration to 50% of hemolysis (IC50) was calculated based on the percent hemolysis. […] Hemolysis (%)=(CR−VM)×100÷(VL−VR) Where:
CR: Absorbance of 5% RBC suspension incubated with the compounds of the present invention solution in DMSO
VM: Absorbance of medium incubated with the compounds of the present invention solution in DMSO
VL: Absorbance of solution of complete hemolysis
VR: Absorbance of 5% RBC suspension incubated with DMSO
The “hemolysis method” in the table means any tests the upper concentration of above IC50 are 50 μmol/L, 80 μmol/L, 100 μmol/L or 200 μmol/L. The “>50”, “>80”, “>100” or “>200” in the table means above IC50 value exceeded the each upper concentration.
Regarding `C[C@@H]1[C@H](O)[C@@H](C)/C=C/C=C/C=C/C=C/C=C/C=C/C=C/[C@H](O[C@@H]2O[C@H](C)[C@@H](O)[C@H](N)[C@@H]2O)C[C@@H]2O[C@](O)(C[C@@H](O)C[C@@H](O)[C@H](O)CC[C@@H](O)C[C@@H](O)CC(=O)O[C@H]1C)C[C@H](O)[C@H]2NC(=O)NC1(C(=O)O)COC1` [I-252], the concentration for half-maximal inhibition (IC50) was more than 50 µM.
The same measure, in the same setting: the same measure for `C[C@@H]1[C@H](O)[C@@H](C)/C=C/C=C/C=C/C=C/C=C/C=C/C=C/[C@H](O[C@@H]2O[C@H](C)[C@@H](O)[C@H](N)[C@@H]2O)C[C@@H]2O[C@](O)(C[C@@H](O)C[C@@H](O)[C@H](O)CC[C@@H](O)C[C@@H](O)CC(=O)O[C@H]1C)C[C@H](O)[C@H]2NC(=O)NC(CO[C@H]1O[C@H](CO)[C@@H](O)[C@H](O)[C@@H]1O)CO[C@H]1O[C@H](CO)[C@@H](O)[C@H](O)[C@@H]1O` [I-254]: more than 50 µM.

Staying with this assay, now noted: hemolysis method 50 (upper concentration 50 μmol/L); 5% RBC suspension, 37° C., one hour; read-out: hemolysis IC50.
In the case of `COC(=O)CCCNC(=O)N[C@H]1[C@@H]2C[C@@H](O[C@@H]3O[C@H](C)[C@@H](O)[C@H](N)[C@@H]3O)/C=C/C=C/C=C/C=C/C=C/C=C/C=C/[C@H](C)[C@@H](O)[C@@H](C)[C@H](C)OC(=O)C[C@H](O)C[C@H](O)CC[C@@H](O)[C@H](O)C[C@H](O)C[C@](O)(C[C@@H]1O)O2` [I-55], the IC50 was more than 50 µM.
For the compound `C[C@@H]1[C@H](O)[C@@H](C)/C=C/C=C/C=C/C=C/C=C/C=C/C=C/[C@H](O[C@@H]2O[C@H](C)[C@@H](O)[C@H](N)[C@@H]2O)C[C@@H]2O[C@](O)(C[C@@H](O)C[C@@H](O)[C@H](O)CC[C@@H](O)C[C@@H](O)CC(=O)O[C@H]1C)C[C@H](O)[C@H]2NC(=O)NCCC(N)=O` [I-81], the concentration for half-maximal inhibition (IC50) is more than 50 µM.
In the case of `C[C@@H]1[C@H](O)[C@@H](C)/C=C/C=C/C=C/C=C/C=C/C=C/C=C/[C@H](O[C@@H]2O[C@H](C)[C@@H](O)[C@H](N)[C@@H]2O)C[C@@H]2O[C@](O)(C[C@@H](O)C[C@@H](O)[C@H](O)CC[C@@H](O)C[C@@H](O)CC(=O)O[C@H]1C)C[C@H](O)[C@H]2NC(=O)NCCNC(N)=O` [I-93], the half-maximal inhibitory concentration (IC50) was more than 50 µM.
For `C[C@@H]1[C@H](O)[C@@H](C)/C=C/C=C/C=C/C=C/C=C/C=C/C=C/[C@H](O[C@@H]2O[C@H](C)[C@@H](O)[C@H](N)[C@@H]2O)C[C@@H]2O[C@](O)(C[C@@H](O)C[C@@H](O)[C@H](O)CC[C@@H](O)C[C@@H](O)CC(=O)O[C@H]1C)C[C@H](O)[C@H]2NC(=O)NCC[C@H](O)CO` [I-146], the IC50 was more than 50 µM.
Regarding `C[C@@H]1[C@H](O)[C@@H](C)/C=C/C=C/C=C/C=C/C=C/C=C/C=C/[C@H](O[C@@H]2O[C@H](C)[C@@H](O)[C@H](N)[C@@H]2O)C[C@@H]2O[C@](O)(C[C@@H](O)C[C@@H](O)[C@H](O)CC[C@@H](O)C[C@@H](O)CC(=O)O[C@H]1C)C[C@H](O)[C@H]2NC(=O)N1CC(NC[C@H](O)CO)C1` [I-226], the half-maximal inhibitory concentration (IC50) is more than 50 µM.
As to `C[C@@H]1[C@H](O)[C@@H](C)/C=C/C=C/C=C/C=C/C=C/C=C/C=C/[C@H](O[C@@H]2O[C@H](C)[C@@H](O)[C@H](N)[C@@H]2O)C[C@@H]2O[C@](O)(C[C@@H](O)C[C@@H](O)[C@H](O)CC[C@@H](O)C[C@@H](O)CC(=O)O[C@H]1C)C[C@H](O)[C@H]2NC(=O)NC1CCS(=O)(=O)C1` (stereo partly drawn) [I-231], the IC50 is more than 50 µM.
Consider `C[C@@H]1[C@H](O)[C@@H](C)/C=C/C=C/C=C/C=C/C=C/C=C/C=C/[C@H](O[C@@H]2O[C@H](C)[C@@H](O)[C@H](N)[C@@H]2O)C[C@@H]2O[C@](O)(C[C@@H](O)C[C@@H](O)[C@H](O)CC[C@@H](O)C[C@@H](O)CC(=O)O[C@H]1C)C[C@H](O)[C@H]2NC(=O)NC(CNS(N)(=O)=O)CN(C)C` (stereo partly drawn) [I-234], for which the 50% inhibitory concentration (IC50) was more than 50 µM.
On the same count and under the same terms, the same measure for `C[C@@H]1[C@H](O)[C@@H](C)/C=C/C=C/C=C/C=C/C=C/C=C/C=C/[C@H](O[C@@H]2O[C@H](C)[C@@H](O)[C@H](N)[C@@H]2O)C[C@@H]2O[C@](O)(C[C@@H](O)C[C@@H](O)[C@H](O)CC[C@@H](O)C[C@@H](O)CC(=O)O[C@H]1C)C[C@H](O)[C@H]2NC(=O)NCCOCCS(C)(=O)=O` [I-241]: more than 50 µM; for `C[C@@H]1[C@H](O)[C@@H](C)/C=C/C=C/C=C/C=C/C=C/C=C/C=C/[C@H](O[C@@H]2O[C@H](C)[C@@H](O)[C@H](N)[C@@H]2O)C[C@@H]2O[C@](O)(C[C@@H](O)C[C@@H](O)[C@H](O)CC[C@@H](O)C[C@@H](O)CC(=O)O[C@H]1C)C[C@H](O)[C@H]2NC(=O)NC(CCO)C(=O)O` (stereo partly drawn) [I-249]: more than 50 µM.
On to `C[C@@H]1[C@H](O)[C@@H](C)/C=C/C=C/C=C/C=C/C=C/C=C/C=C/[C@H](O[C@@H]2O[C@H](C)[C@@H](O)[C@H](N)[C@@H]2O)C[C@@H]2O[C@](O)(C[C@@H](O)C[C@@H](O)[C@H](O)CC[C@@H](O)C[C@@H](O)CC(=O)O[C@H]1C)C[C@H](O)[C@H]2NC(=O)NOCC(CO)CO` [I-255], for which the IC50 is more than 50 µM.
As for `C[C@@H]1[C@H](O)[C@@H](C)/C=C/C=C/C=C/C=C/C=C/C=C/C=C/[C@H](O[C@@H]2O[C@H](C)[C@@H](O)[C@H](N)[C@@H]2O)C[C@@H]2O[C@](O)(C[C@@H](O)C[C@@H](O)[C@H](O)CC[C@@H](O)C[C@@H](O)CC(=O)O[C@H]1C)C[C@H](O)[C@H]2NC(=O)NC1(C#N)COC1` [I-258], the concentration for half-maximal inhibition (IC50) was more than 50 µM.

Staying with this assay, now noted: hemolysis method 80 (upper concentration 80 μmol/L); 5% RBC suspension, 37° C., one hour; read-out: hemolysis IC50.
In the case of `C[C@@H]1[C@H](O)[C@@H](C)/C=C/C=C/C=C/C=C/C=C/C=C/C=C/[C@H](O[C@@H]2O[C@H](C)[C@@H](O)[C@H](N)[C@@H]2O)C[C@@H]2O[C@](O)(C[C@@H](O)C[C@@H](O)[C@H](O)CC[C@@H](O)C[C@@H](O)CC(=O)O[C@H]1C)C[C@H](O)[C@H]2NC(=O)NC1CCN(C)CC1` [I-48], the IC50 was more than 80 µM.
For `C[C@@H]1[C@H](O)[C@@H](C)/C=C/C=C/C=C/C=C/C=C/C=C/C=C/[C@H](O[C@@H]2O[C@H](C)[C@@H](O)[C@H](N)[C@@H]2O)C[C@@H]2O[C@](O)(C[C@@H](O)C[C@@H](O)[C@H](O)CC[C@@H](O)C[C@@H](O)CC(=O)O[C@H]1C)C[C@H](O)[C@H]2NC(=O)NCCN(C)C` [I-51], the IC50 was more than 80 µM.
The same measure, in the same setting: the same measure for `C[C@@H]1[C@H](O)[C@@H](C)/C=C/C=C/C=C/C=C/C=C/C=C/C=C/[C@H](O[C@@H]2O[C@H](C)[C@@H](O)[C@H](N)[C@@H]2O)C[C@@H]2O[C@](O)(C[C@@H](O)C[C@@H](O)[C@H](O)CC[C@@H](O)C[C@@H](O)CC(=O)O[C@H]1C)C[C@H](O)[C@H]2NC(=O)NCC[N+](C)(C)C` [I-53]: more than 80 µM; for `C[C@@H]1[C@H](O)[C@@H](C)/C=C/C=C/C=C/C=C/C=C/C=C/C=C/[C@H](O[C@@H]2O[C@H](C)[C@@H](O)[C@H](N)[C@@H]2O)C[C@@H]2O[C@](O)(C[C@@H](O)C[C@@H](O)[C@H](O)CC[C@@H](O)C[C@@H](O)CC(=O)O[C@H]1C)C[C@H](O)[C@H]2NC(=O)N1CCC(N(C)C)CC1` [I-54]: more than 80 µM.

Still in this assay, the particulars now being: hemolysis method 100 (upper concentration 100 μmol/L); 5% RBC suspension, 37° C., one hour; read-out: hemolysis IC50.
For `C[C@@H]1[C@H](O)[C@@H](C)/C=C/C=C/C=C/C=C/C=C/C=C/C=C/[C@H](O[C@@H]2O[C@H](C)[C@@H](O)[C@H](N)[C@@H]2O)C[C@@H]2O[C@](O)(C[C@@H](O)C[C@@H](O)[C@H](O)CC[C@@H](O)C[C@@H](O)CC(=O)O[C@H]1C)C[C@H](O)[C@H]2NC(=O)NC1CN(C)C1` [I-62], the 50% inhibitory concentration (IC50) is 50 µM.
For `CC1C=CC=CC=CC=CC=CC=CC=CC(OC2OC(C)C(O)C(N)C2O)CC2OC(O)(CC(O)CC(O)C(O)CCC(O)CC(O)CC(=O)OC(C)C(C)C1O)CC(O)C2NC(=O)NC1CCCC1O` (stereo not drawn) [I-207], the IC50 was more than 100 µM.
For `C[C@@H]1[C@H](O)[C@@H](C)/C=C/C=C/C=C/C=C/C=C/C=C/C=C/[C@H](O[C@@H]2O[C@H](C)[C@@H](O)[C@H](N)[C@@H]2O)C[C@@H]2O[C@](O)(C[C@@H](O)C[C@@H](O)[C@H](O)CC[C@@H](O)C[C@@H](O)CC(=O)O[C@H]1C)C[C@H](O)[C@H]2NC(=O)N(N)CCO` [I-212], the IC50 is more than 100 µM.
For `C[C@@H]1[C@H](O)[C@@H](C)/C=C/C=C/C=C/C=C/C=C/C=C/C=C/[C@H](O[C@@H]2O[C@H](C)[C@@H](O)[C@H](N)[C@@H]2O)C[C@@H]2O[C@](O)(C[C@@H](O)C[C@@H](O)[C@H](O)CC[C@@H](O)C[C@@H](O)CC(=O)O[C@H]1C)C[C@H](O)[C@H]2NC(=O)NC(C)(CO)CO` [I-213], the IC50 is more than 100 µM.

Broadly, the IC50 is the concentration at which inhibition is half-maximal.

(Values after patent publication US10696707B2, “Polyene macrolide derivative” (Shionogi & Co., Ltd., priority 2014, dated 2020).)
